For the data set, the system named is cells. The experiment in a line: MTT assay for cytotoxicity. It is filed as cell-based. Particulars: within a range of used concentrations, FIG. 3.

Ends that are not written are not given here.

For the sequence “GQGFSYPYKAVFSTQ [BFP 1, Gly-Gln-Gly-Phe-Ser-Tyr-Pro-Tyr-Lys-Ala-Val-Phe-Ser-Thr-Gln]”, the cytotoxicity result is recorded as “not toxic to cells”.

(Values after patent EP2293808B1, “AN SYNTHETIC PEPTIDE CONTAINING BONE FORMING PEPTIDE 1(BFP 1) FOR STIMULATING OSTEOBLAST DIFFERENTIATION, AND PHARMACEUTICAL COMPOSITION COMPRISING THE SYNTHETIC PEPTIDE” (Industry Foundation Of Chonnam National University, priority 2008, dated 2012).)
